We go through nine compounds from patent US20100160402A1, “Bisbenzimidazoles as antimalarial agents” (priority 2007, published 2010).

One may read the melting point as the temperature of the solid-liquid transition. The IC50 is the concentration that gives 50% inhibition. The term pIC50 denotes the negative decadic logarithm of the IC50, by convention in mol/L.

Structures are written as SMILES. pIC50: −log10 of the molar value. Several values for one entry are separate records, joined by “and”; a condition that tells them apart may be missing. Identical values can stand only once. Like-named read-outs stand apart in the source and are kept apart here.

The subject of one data set is Plasmodium falciparum. Kind of data set: In vitro drug screening model against Plasmodium falciparum (drug sensitivity assay, Malstat LDH read-out). In kind it is cell-based. Conditions: for score: score in brackets after the IC50, scale not defined. The protocol: Malaria: In Vitro Drug Screening Model Against Plasmodium falciparum
Two strains of P. falciparum were used: 1/GHA strain (P. falGHA), derived from a Ghanese patient and chloroquine sensitive and 2/W-2 strain (P.falW2) from CDC/Indochina III and resistant to chloroquine, quinine, pyrimethamine, but susceptible to mefloquine. The strains were maintained in RPMI-1640 medium supplemented with 0.37 mM hypoxanthine, 25 mM Hepes, 25 mM NaHCO3, and 10% O+ human serum together with 2-4% washed human O+ erythrocytes (Adaptation of the procedures described by Trager, W.; Jensen J. B. Science 1976, 193, 673-677). All cultures and assays were conducted at 37° C. under an atmosphere of 4% CO2, 3% O2 and 93% N2.
Compound stock solutions were prepared in 100% DMSO at 20 mM or mg/ml (Concentrations are standard expressed in molar concentrations). The compounds were serially pre-diluted (2-fold or 4-fold) in DMSO followed by a further (intermediate) dilution in demineralized water to assure a final in-test DMSO concentration of <1%.
Assays were performed in sterile 96-well microtiter plates, each well containing 10 μl of the watery compound dilutions together with 190 μl of the malaria parasite inoculum (1% parasitaemia, 2% HCT). Parasite growth was compared to untreated-infected (100% growth) and uninfected-controls (0% growth). After 72 h incubation at 37° C., plates were frozen at −20° C. After thawing, 20 μl of each well was transferred into another plate together with 100 μl Malstat reagent (Lactate dehydrogenase (LDH)-test, according to Makler et al.: Am. J. Trop Med. Hyg, 48, 7339-741, 1993) and 20 μl of a 1/1 mixture of PES (phenazine ethosulfat, 0.1 mg/ml) and NBT (NitroBlue Tetrazolium Grade III, 2 mg/ml). The plates were kept out of light for 2 hours and change in color was measured spectrophotometrically at 655 nm. The results were expressed as % reduction in parasitaemia compared to control wells. For each compound, an IC50 was calculated.
The GHA strain was used. Compounds were tested at 5 concentrations (64-16-4-1 and 0.25 μM or μg/ml). […] Some of the compounds were evaluated in a secondary screening.
Additional strains (GHA, W2, D6, NF54) were included and the IC50-values were determined using an extended dose range (2-fold compound dilutions). Artesunate and chloroquine were included as reference drugs.

Data set [1] relates to other strains of parasites. Kind of data set: Activity against other strains of parasites (selectivity). It is filed as cell-based.
Where [2] appears, read: Plasmodium falciparum, Table 2, P. falciparum, strain not given, 72 h incubation, read-out: IC50.

Consider `c1ccc2[nH]c(-c3ccc(OCCCCCCCOc4ccc(-c5nc6ccccc6[nH]5)cc4)cc3)nc2c1` [Compound 5, 2,2′-[1,7-heptanediylbis(oxy-1,4-phenylene)]bis-1H-benzimidazole], for which the melting point fell in the range of 298 to 301 °C.

`c1cc(OCCCCCOc2cccc(-c3nc4ccccc4[nH]3)c2)cc(-c2nc3ccccc3[nH]2)c1` [Compound 6, 2,2′-[1,5-pentanediylbis(oxy-1,3-phenylene)]bis-1H-benzimidazole] had a melting point of 240 to 243 °C. In the data set on Plasmodium falciparum (setting [2]), the half-inhibitory concentration (IC50) is 3.91 µg/mL. Besides, the score in the data set with Plasmodium falciparum (Table 2) is 2.

Regarding `CCN(CC)CCCC(C)Nc1ccnc2cc(Cl)ccc12` (stereo not drawn) [Chloroquine, chloroquine, reference compound], the IC50 with Plasmodium falciparum (Plasmodium falciparum, 72 h) is 50 nM and 0.04 µg/mL.

For the compound `c1ccc2[nH]c(-c3ccc(OCCCCCCOc4ccc(-c5nc6ccccc6[nH]5)cc4)cc3)nc2c1` [Compound 4, 2,2′-[1,6-hexanediylbis(oxy-1,4-phenylene)]bis-1H-benzimidazole], the melting point is greater than 300 °C.

Compound `c1ccc2[nH]c(-c3ccc(OCCCCOc4ccc(-c5nc6ccccc6[nH]5)cc4)cc3)nc2c1` [Compound 2, 2,2′-[1,4-butanediylbis(oxy-1,4-phenylene)]bis-1H-benzimidazole] displayed a melting point greater than 300 °C.

The compound `c1ccc2[nH]c(-c3ccc(OCCCOc4ccc(-c5nc6ccccc6[nH]5)cc4)cc3)nc2c1` [Compound 1, 2,2′-[1,3-propanediylbis(oxy-1,4-phenylene)]bis-1H-benzimidazole] registered a melting point greater than 300 °C. Also, the IC50 with Plasmodium falciparum (setting [2]) came to 16.6 µg/mL. Also, the score in the data set on Plasmodium falciparum (Table 2) stood at 1.

Consider `c1ccc(-c2nc3ccccc3[nH]2)c(OCCCCCOc2ccccc2-c2nc3ccccc3[nH]2)c1` [Compound 7, 2,2′-[1,5-pentanediylbis(oxy-1,2-phenylene)]bis-1H-benzimidazole], for which the melting point fell in the range of 190 to 193 °C. Moreover, in the data set on Plasmodium falciparum (setting [2]), the IC50 stood at 8.31 µg/mL. Besides, the score in the data set on Plasmodium falciparum (Table 2) is 2.

As to `C[C@H]1[C@H](OC(=O)CCC(=O)O)O[C@@H]2O[C@@]3(C)CC[C@H]4[C@H](C)CC[C@@H]1[C@@]24OO3` [Artesunate, reference compound], the pIC50 with Plasmodium falciparum (Plasmodium falciparum, 72 h) is 8.30.

Consider `c1ccc2[nH]c(-c3ccc(OCCCCCOc4ccc(-c5nc6ccccc6[nH]5)cc4)cc3)nc2c1` [Compound 3, 2,2′-[1,5-pentanediylbis(oxy-1,4-phenylene)]bis-1H-benzimidazole], for which the melting point was greater than 300 °C. The “activity against some other strains of parasites (selectivity compared to chloroquine)” value in data set [1] is listed as “not active”. The IC50 in the data set on Plasmodium falciparum (setting [2]) was 0.49 µg/mL. In addition, the score with Plasmodium falciparum (Table 2) came out at 3.
